In US9340590B2 (priority 2011, dated 2016):
Like-named read-outs stand apart in the source and are kept apart here. Positions of bridges follow the written chain, without caps; N, C: chain ends. Residues, ends and D or L forms follow the SMILES beside them.

Assays:
Test in all cases: cell-based
hNav1.7 = hNav1.7 (Homo sapiens, UniProt Q15858); assay type: cell-based; conditions: IonWorks Quattro
hNav1.5 = hNav1.5 (Homo sapiens, UniProt Q14524)
hNav1.3 = hNav1.3 (Homo sapiens, UniProt Q9NY46); conditions: IonWorks Quattro, read-out: IWQ Use Nav1.3
[1] = use-dependent block, hNav1.7, read-out: IWQ Use Nav1.7
[2] = IonWorks Quattro, use-dependent block, hNav1.5, read-out: IWQ Use Nav1.5

Chain of hNav1.7 (Q15858 whole entry, looked up): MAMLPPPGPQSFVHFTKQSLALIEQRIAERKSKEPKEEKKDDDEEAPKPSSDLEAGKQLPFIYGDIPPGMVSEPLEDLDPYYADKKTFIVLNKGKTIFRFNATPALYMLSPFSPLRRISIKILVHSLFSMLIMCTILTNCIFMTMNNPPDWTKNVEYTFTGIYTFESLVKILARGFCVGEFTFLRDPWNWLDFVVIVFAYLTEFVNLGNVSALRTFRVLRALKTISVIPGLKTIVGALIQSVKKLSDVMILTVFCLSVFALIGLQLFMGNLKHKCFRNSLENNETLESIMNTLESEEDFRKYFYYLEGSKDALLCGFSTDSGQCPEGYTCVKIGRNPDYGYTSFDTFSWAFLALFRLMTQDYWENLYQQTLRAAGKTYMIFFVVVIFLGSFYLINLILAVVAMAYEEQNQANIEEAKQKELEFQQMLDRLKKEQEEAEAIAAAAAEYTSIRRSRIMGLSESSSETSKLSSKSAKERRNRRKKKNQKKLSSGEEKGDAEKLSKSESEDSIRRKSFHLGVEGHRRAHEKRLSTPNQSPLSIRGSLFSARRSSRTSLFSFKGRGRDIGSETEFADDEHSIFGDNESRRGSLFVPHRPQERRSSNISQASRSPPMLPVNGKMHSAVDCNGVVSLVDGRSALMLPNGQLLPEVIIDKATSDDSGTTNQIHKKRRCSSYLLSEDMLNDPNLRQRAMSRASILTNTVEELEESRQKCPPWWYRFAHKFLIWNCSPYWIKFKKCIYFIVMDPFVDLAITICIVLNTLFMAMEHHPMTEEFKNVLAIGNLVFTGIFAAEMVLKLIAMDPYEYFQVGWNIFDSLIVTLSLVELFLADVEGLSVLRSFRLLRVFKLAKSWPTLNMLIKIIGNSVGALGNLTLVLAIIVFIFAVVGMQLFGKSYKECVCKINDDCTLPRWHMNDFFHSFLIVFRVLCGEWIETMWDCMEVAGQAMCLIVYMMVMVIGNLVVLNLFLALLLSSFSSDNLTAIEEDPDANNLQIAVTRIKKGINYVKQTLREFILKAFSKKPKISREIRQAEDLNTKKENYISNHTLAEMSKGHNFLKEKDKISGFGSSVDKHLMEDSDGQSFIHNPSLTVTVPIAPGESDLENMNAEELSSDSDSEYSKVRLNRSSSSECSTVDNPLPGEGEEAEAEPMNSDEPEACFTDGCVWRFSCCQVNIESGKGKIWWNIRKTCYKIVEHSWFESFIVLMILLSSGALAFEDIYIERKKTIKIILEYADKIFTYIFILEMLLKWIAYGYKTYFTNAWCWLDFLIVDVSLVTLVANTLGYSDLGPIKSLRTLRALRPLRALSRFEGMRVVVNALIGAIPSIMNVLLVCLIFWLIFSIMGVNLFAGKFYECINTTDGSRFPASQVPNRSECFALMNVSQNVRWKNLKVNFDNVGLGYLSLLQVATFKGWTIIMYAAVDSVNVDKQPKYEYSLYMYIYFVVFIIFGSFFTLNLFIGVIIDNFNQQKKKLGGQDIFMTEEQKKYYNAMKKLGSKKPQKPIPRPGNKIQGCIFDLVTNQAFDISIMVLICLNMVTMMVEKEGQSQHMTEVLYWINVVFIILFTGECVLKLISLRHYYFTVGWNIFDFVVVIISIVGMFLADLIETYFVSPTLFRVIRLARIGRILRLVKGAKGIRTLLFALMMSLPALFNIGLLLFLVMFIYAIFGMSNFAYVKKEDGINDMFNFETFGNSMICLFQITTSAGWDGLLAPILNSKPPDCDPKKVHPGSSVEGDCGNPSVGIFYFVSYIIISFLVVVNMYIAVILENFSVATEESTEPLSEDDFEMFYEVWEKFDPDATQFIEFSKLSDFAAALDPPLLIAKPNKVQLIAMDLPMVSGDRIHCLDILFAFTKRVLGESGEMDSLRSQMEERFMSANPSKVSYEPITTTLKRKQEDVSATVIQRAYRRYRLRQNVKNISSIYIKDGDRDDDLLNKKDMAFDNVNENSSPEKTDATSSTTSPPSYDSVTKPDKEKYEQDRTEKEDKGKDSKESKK
Chain of hNav1.5 (Q14524 whole entry, looked up): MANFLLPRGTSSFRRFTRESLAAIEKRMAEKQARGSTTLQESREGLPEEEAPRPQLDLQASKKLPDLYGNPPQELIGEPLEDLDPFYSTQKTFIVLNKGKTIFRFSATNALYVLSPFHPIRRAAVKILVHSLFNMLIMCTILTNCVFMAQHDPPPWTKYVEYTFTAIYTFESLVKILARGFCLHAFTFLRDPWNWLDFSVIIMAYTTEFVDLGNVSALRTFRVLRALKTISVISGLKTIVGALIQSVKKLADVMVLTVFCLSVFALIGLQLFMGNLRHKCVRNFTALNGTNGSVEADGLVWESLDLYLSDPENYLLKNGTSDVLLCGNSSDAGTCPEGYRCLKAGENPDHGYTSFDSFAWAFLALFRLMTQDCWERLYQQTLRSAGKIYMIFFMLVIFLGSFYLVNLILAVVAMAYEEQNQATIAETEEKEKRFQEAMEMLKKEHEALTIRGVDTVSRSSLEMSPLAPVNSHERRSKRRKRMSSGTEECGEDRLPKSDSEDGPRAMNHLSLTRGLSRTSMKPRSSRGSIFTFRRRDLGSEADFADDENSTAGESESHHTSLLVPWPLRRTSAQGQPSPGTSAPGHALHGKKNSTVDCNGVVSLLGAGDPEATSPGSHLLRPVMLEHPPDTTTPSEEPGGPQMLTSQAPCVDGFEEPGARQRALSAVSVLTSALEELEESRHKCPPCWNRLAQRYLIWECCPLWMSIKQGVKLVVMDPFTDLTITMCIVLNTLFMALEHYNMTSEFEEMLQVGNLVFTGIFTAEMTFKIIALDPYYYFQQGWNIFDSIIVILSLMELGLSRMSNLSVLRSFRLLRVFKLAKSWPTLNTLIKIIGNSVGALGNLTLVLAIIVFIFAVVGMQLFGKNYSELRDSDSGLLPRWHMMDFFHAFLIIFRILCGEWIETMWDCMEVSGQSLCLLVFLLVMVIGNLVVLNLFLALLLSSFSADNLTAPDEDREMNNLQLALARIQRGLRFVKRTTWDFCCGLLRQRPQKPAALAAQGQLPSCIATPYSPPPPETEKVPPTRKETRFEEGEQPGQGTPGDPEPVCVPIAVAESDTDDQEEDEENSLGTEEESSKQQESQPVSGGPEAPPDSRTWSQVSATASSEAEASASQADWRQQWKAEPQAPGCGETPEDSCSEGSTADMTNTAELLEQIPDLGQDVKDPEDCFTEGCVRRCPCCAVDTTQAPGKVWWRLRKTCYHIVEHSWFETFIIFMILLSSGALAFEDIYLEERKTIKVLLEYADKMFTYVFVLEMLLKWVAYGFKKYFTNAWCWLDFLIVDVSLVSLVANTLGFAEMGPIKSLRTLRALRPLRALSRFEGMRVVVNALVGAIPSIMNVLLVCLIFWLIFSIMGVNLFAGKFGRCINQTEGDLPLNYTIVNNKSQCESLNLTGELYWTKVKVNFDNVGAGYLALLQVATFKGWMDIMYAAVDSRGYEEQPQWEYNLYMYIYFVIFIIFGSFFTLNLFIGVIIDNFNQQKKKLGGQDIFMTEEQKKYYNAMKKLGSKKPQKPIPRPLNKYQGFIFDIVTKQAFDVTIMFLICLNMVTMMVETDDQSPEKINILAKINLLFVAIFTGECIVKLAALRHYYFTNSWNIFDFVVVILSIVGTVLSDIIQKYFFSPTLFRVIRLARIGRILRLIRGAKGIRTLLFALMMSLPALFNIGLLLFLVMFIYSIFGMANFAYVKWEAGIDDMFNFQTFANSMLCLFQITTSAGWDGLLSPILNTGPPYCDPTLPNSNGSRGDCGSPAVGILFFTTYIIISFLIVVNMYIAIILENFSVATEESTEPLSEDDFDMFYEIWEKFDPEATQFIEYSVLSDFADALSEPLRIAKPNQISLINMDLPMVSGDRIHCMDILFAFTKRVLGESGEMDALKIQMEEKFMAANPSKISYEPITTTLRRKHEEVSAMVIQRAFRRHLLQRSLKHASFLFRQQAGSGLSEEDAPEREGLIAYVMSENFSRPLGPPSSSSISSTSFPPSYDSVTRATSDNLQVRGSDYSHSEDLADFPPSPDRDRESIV

| SMILES | IC50 (hNav1.7; [1]) | IC50 (hNav1.5; [2]) | IC50 (hNav1.3; use-dependent block, hNav1.3) | IC50 (hNav1.7; Table 23, use, […], read-out: IWQ Use Nav1.7) | IC50 (hNav1.5; IWQ Use Nav1.5 (μM)) | IC50 (hNav1.3; Table 23, use, […]) | IC50 (hNav1.7; use-dependent, […], read-out: IWQ Use Nav1.7 (μm)) | IC50 (hNav1.3; use-dependent, […]) |
| --- | --- | --- | --- | --- | --- | --- | --- | --- |
| CC[C@H](C)[C@@H]1NC(=O)[C@@H]2CSSC[C@@H]3NC(=O)[C@H](C(C)C)NC(=O)[C@H](CC(C)C)NC(=O)[C@H](CC(N)=O)NC(=O)[C@@H]4CCCN4C(=O)[C@H](CCCNC(=N)N)NC(=O)[C@H](CSSC[C@H](NC(=O)[C@@H](N)CC(=O)O)C(=O)N[C@@H](CC(C)C)C(=O)NCC(=O)N[C@@H](C)C(=O)N[C@@H](CC(C)C)C(=O)N[C@@H](CCCNC(=N)N)C(=O)N[C@@H](CCCCN)C(=O)N2)NC(=O)[C@H](CSSC[C@@H](C(=O)N[C@@H](CCCCN)C(=O)N[C@@H](Cc2ccc(O)cc2)C(=O)N[C@H](C(=O)N[C@@H](Cc2ccccc2)C(N)=O)C(C)C)NC(=O)[C@H](Cc2c[nH]c4ccccc24)NC(=O)[C@H](CCCCN)NC(=O)[C@H](Cc2c[nH]cn2)NC(=O)[C@H]([C@@H](C)O)NC(=O)[C@H](CCC(=O)O)NC(=O)[C@H](CO)NC3=O)NC(=O)[C@H](CCCCN)NC(=O)[C@H](CC(=O)O)NC(=O)[C@H](CC(N)=O)NC(=O)[C@H](CC(=O)O)NC(=O)[C@@H]2CCCN2C1=O [compound 734] | 1.8 µM | 41 µM | 9.3 µM |  |  |  |  |  |
| CC[C@H](C)[C@@H]1NC(=O)[C@@H]2CSSC[C@@H]3NC(=O)[C@H](C(C)C)NC(=O)[C@H](CC(C)C)NC(=O)[C@H](CC(N)=O)NC(=O)[C@@H]4CCCN4C(=O)[C@H](CCCNC(=N)N)NC(=O)[C@H](CSSC[C@H](NC(=O)[C@@H](N)CC(=O)O)C(=O)N[C@@H](CC(C)C)C(=O)NCC(=O)N[C@@H](CC(C)C)C(=O)N[C@@H](Cc4ccccc4)C(=O)N[C@@H](CCCNC(=N)N)C(=O)N[C@@H](CCCCN)C(=O)N2)NC(=O)[C@H](CSSC[C@@H](C(=O)N[C@@H](CCCCN)C(=O)N[C@@H](Cc2ccc(O)cc2)C(=O)N[C@H](C(=O)N[C@@H](Cc2ccccc2)C(N)=O)C(C)C)NC(=O)[C@H](Cc2c[nH]c4ccccc24)NC(=O)[C@H](CCCCN)NC(=O)[C@H](Cc2c[nH]cn2)NC(=O)[C@H]([C@@H](C)O)NC(=O)[C@H](CCCNC(=N)N)NC(=O)[C@H](CO)NC3=O)NC(=O)[C@H](CCCCN)NC(=O)[C@H](CC(=O)O)NC(=O)[C@H](CC(N)=O)NC(=O)[C@H](CC(=O)O)NC(=O)[C@@H]2CCCN2C1=O [compound 612] (H-DCLGLFRKCIPDNDKCCRPNLVCSRTHKWCKYVF-NH2; disulfide 2-17, 9-23, 16-30) | 0.057 µM | 20.1 µM | 0.22 µM |  |  |  |  |  |
| CC[C@H](C)[C@@H]1NC(=O)[C@@H]2CSSC[C@@H]3NC(=O)[C@H](C(C)C)NC(=O)[C@H](CC(C)C)NC(=O)[C@H](CC(N)=O)NC(=O)[C@@H]4CCCN4C(=O)[C@H](CCCNC(=N)N)NC(=O)[C@H](CSSC[C@H](NC(=O)[C@@H](N)CC(=O)O)C(=O)N[C@@H](CC(C)C)C(=O)NCC(=O)N[C@@H](C)C(=O)N[C@@H](Cc4ccccc4)C(=O)N[C@@H](CCCNC(=N)N)C(=O)N[C@@H](CCCCN)C(=O)N2)NC(=O)[C@H](CSSC[C@@H](C(=O)N[C@@H](CCCCN)C(=O)N[C@@H](Cc2ccc(O)cc2)C(=O)N[C@H](C(=O)N[C@@H](Cc2ccccc2)C(=O)O)C(C)C)NC(=O)[C@H](Cc2c[nH]c4ccccc24)NC(=O)[C@H](CCCNC(=N)N)NC(=O)[C@H](Cc2c[nH]cn2)NC(=O)[C@H]([C@@H](C)O)NC(=O)[C@H](CCCNC(=N)N)NC(=O)[C@H](CO)NC3=O)NC(=O)[C@H](CCCCN)NC(=O)[C@H](CC(=O)O)NC(=O)[C@H](CCCCN)NC(=O)[C@H](CC(=O)O)NC(=O)[C@@H]2CCCN2C1=O [compound 843] | 3.6 µM | 2.8 µM | 0.3 µM |  |  |  |  |  |
| CC[C@H](C)[C@@H]1NC(=O)[C@@H]2CSSC[C@@H]3NC(=O)[C@H](C(C)C)NC(=O)[C@H](CC(C)C)NC(=O)[C@H](CC(N)=O)NC(=O)[C@@H]4CCCN4C(=O)[C@H](CCCNC(=N)N)NC(=O)[C@H](CSSC[C@H](NC(=O)[C@@H](N)CC(=O)O)C(=O)N[C@@H](CC(C)C)C(=O)NCC(=O)NCC(=O)N[C@@H](C(C)C)C(=O)N[C@@H](CCCNC(=N)N)C(=O)N[C@@H](CCCCN)C(=O)N2)NC(=O)[C@H](CSSC[C@@H](C(=O)N[C@@H](CCCCN)C(=O)N[C@@H](Cc2ccc(O)cc2)C(=O)N[C@H](C(=O)N[C@@H](Cc2ccccc2)C(N)=O)C(C)C)NC(=O)[C@H](Cc2c[nH]c4ccccc24)NC(=O)[C@H](CCCCN)NC(=O)[C@H](Cc2c[nH]cn2)NC(=O)[C@H]([C@@H](C)O)NC(=O)[C@H](CCCNC(=N)N)NC(=O)[C@H](CO)NC3=O)NC(=O)[C@H](CCCCN)NC(=O)[C@H](CC(=O)O)NC(=O)[C@H](CC(N)=O)NC(=O)[C@H](CC(=O)O)NC(=O)[C@@H]2CCCN2C1=O [compound 751] (H-DCLGGVRKCIPDNDKCCRPNLVCSRTHKWCKYVF-NH2; disulfide 2-17, 9-23, 16-30) | > 5 µM | 25.5 µM | > 5 µM |  |  |  |  |  |
| CC[C@H](C)[C@@H]1NC(=O)[C@@H]2CSSC[C@@H]3NC(=O)[C@H](C(C)C)NC(=O)[C@H](CC(C)C)NC(=O)[C@H](CC(N)=O)NC(=O)[C@@H]4CCCN4C(=O)[C@H](CCCNC(=N)N)NC(=O)[C@H](CSSC[C@H](NC(=O)[C@@H](N)CC(=O)O)C(=O)N[C@@H](CC(C)C)C(=O)NCC(=O)N[C@@H](Cc4ccccc4)C(=O)N[C@@H](CCSC)C(=O)N[C@@H](CCCNC(=N)N)C(=O)N[C@@H](CCCCN)C(=O)N2)NC(=O)[C@H](CSSC[C@@H](C(=O)N[C@@H](CCCCN)C(=O)N[C@@H](Cc2ccc(O)cc2)C(=O)N[C@H](C(=O)N[C@@H](Cc2ccccc2)C(N)=O)C(C)C)NC(=O)[C@H](Cc2c[nH]c4ccccc24)NC(=O)[C@H](CCCNC(=N)N)NC(=O)[C@H](Cc2cnc[nH]2)NC(=O)[C@H]([C@@H](C)O)NC(=O)[C@H](CCCNC(=N)N)NC(=O)[C@H](CO)NC3=O)NC(=O)[C@H](CCCCN)NC(=O)[C@H](CC(=O)O)NC(=O)[C@H](CC(N)=O)NC(=O)[C@H](CC(=O)O)NC(=O)[C@@H]2CCCN2C1=O [SEQ ID NO: 72, [Arg28]GpTx-1] |  |  |  | 0.08 µM | 8.95 µM | 0.13 µM |  |  |
| CC[C@H](C)[C@@H]1NC(=O)[C@@H]2CSSC[C@@H]3NC(=O)[C@H](C(C)C)NC(=O)[C@H](CC(C)C)NC(=O)[C@H](CC(N)=O)NC(=O)[C@@H]4CCCN4C(=O)[C@H](CCCNC(=N)N)NC(=O)[C@H](CSSC[C@H](NC(=O)[C@@H](N)CC(=O)O)C(=O)N[C@@H](CC(C)C)C(=O)NCC(=O)N[C@@H](Cc4ccccc4)C(=O)N[C@@H](CCSC)C(=O)N[C@@H](CCCNC(=N)N)C(=O)N[C@@H](CCCCN)C(=O)N2)NC(=O)[C@H](CSSC[C@@H](C(=O)N[C@@H](CCCCN)C(=O)N[C@@H](Cc2ccc(O)cc2)C(=O)N[C@H](C(=O)N[C@@H](Cc2ccccc2)C(=O)N[C@@H](CCC(=O)O)C(N)=O)C(C)C)NC(=O)[C@H](Cc2c[nH]c4ccccc24)NC(=O)[C@H](CCCCN)NC(=O)[C@H](Cc2c[nH]cn2)NC(=O)[C@H]([C@@H](C)O)NC(=O)[C@H](CCCNC(=N)N)NC(=O)[C@H](CO)NC3=O)NC(=O)[C@H](CCCCN)NC(=O)[C@H](CC(=O)O)NC(=O)[C@H](CC(N)=O)NC(=O)[C@H](CC(=O)O)NC(=O)[C@@H]2CCCN2C1=O [compound 35] |  |  |  |  | 19.6 µM |  | 4.47 µM | 2.47 µM |
